We go through one molecule from patent publication US20060094059A1, “Methods for identifying new drug leads and new therapeutic uses for known drugs” (Odyssey Thera, Inc., priority 2004, published 2006).

Test [1] deals with non-small cell lung carcinoma (A549) cells. Briefly: MTT proliferation assay, NSCLC. Type of test: cell-based, Human. The following applies: Homo sapiens, Tumor Cell NSCLC (A549), 120 hours, read-out: Anti-proliferative IC-50.
Test [2] deals with colon adenocarcinoma (LoVo) cells. The test can be described thus: MTT proliferation assay, colon. Type of test: cell-based, Human. Conditions: Homo sapiens, Tumor Cell Colon (LoVo), 120 hours, read-out: Anti-proliferative IC-50.
The test system of test [3] is MAX:MYC. The test can be described thus: Protein-fragment complementation assay MAX:MYC. The following applies: hit in MYC/MAX assay; drugs screened at 10 micromolar. Type of test: cell-based, human. The source says:
(§1) To construct dynamic assays for protein-protein complexes, we used a protein-fragment complementation assay strategy (PCAs) in intact human cells. (A variety of other suitable assays, and reporter options, are described in detail below.) The principle of PCA is that complementary polypeptide fragments (F[1] and F[2]) of a reporter protein or enzyme will fold into an active form only if fused to two proteins which interact and bring the complementary fragments of the reporter protein into proximity. Reconstitution of the fragments of the reporter protein generates a fluorescent signal that can be quantified in intact cells, and the amount of the signal is proportional to the amount of the protein-protein complex used in constructing the assay. Given a suitable reporter type, the subcellular location of the complex can also be measured.
(§2) Reporter fragments for PCA were generated by oligonucleotide synthesis (Blue Heron Biotechnology, Bothell, Wash.), starting with the sequence of yellow fluorescent protein (YFP). First, oligonucleotides coding for polypeptide fragments YFP[1]and YFP[2] […] Next, PCR mutagenesis was used to generate the mutant fragments IFP[1] and IFP[2]. The IFP[1] fragment corresponds to YFP[1]-(F46L, F64L, M153T) and the IFP[2] fragment corresponds to YFP[2]-(V163A, S175G). […]

In test [4] the test system is HSP90:CDC37. The test can be described thus: Protein-fragment complementation assay Hsp90:CDC37. Type of test: cell-based, human.
From the text: as §1, §2

Test [5] has as its system Cofilin:LIMK2. The test can be described thus: Protein-fragment complementation assay Cofilin:LIMK2. The following applies: hit in Cofilin/LIMK2 assay; drugs screened at 10 micromolar. The format is cell-based, human.
From the text: as §1, §2

Test [6] concerns PIN1:JUN complexes. Briefly: Protein-fragment complementation assay PIN1:JUN. The format is cell-based, human.
From the text: as §1, §2

Test [7] concerns glioblastoma (U-87 MG) cells. The test can be described thus: MTT proliferation assay, glioblastoma. Type of test: cell-based. Conditions: Homo sapiens, Tumor Cell Glioblastoma (U-87 MG), 120 hours, read-out: Anti-proliferative IC-50.
The subject of test [8] is pancreatic carcinoma (MIA PaCa-2) cells. The test can be described thus: MTT proliferation assay, pancreatic. The following applies: Homo sapiens, Tumor Cell Pancreatic (MIA PaCa-2), 120 hours, read-out: Anti-proliferative IC-50. Type of test: cell-based, Human. On the technique in general: Tetrazolium dyes change colour on reduction, which living cells bring about.

`O=C(Nc1ccc([N+](=O)[O-])cc1Cl)c1cc(Cl)ccc1O` [Niclosamide]: the IC50 was 660 nM in test [1], 450 nM in test [2], 810 nM in test [7] and 590 nM in test [8]. In addition, the Assay activity result in test [3] is listed as “MYC/MAX”; in test [4] (hit in HSP90/CDC37 assay, drugs screened at 10 micromolar), “HSP90/CDC37,”; in test [5], “Cofilin/LIMK2,”; in test [6] (hit in PIN1/JUN assay, drugs screened at 10 micromolar), “PIN1/JUN,”. Besides, in test [4] (FIG. 3D), the “level of HSP90:CDC37 complexes (intensity of the fluorescence)” value is on record as “decrease in the level”. The “level of PIN1:JUN complexes (intensity of the fluorescence)” value in test [6] (FIG. 3A) is given as “decrease in the level”.
